From ChEMBL document CHEMBL6134821, “Design, synthesis, and biological evaluation of novel BTK-targeting proteolysis targeting chimeras (PROTACs) with enhanced pharmacokinetic properties” (Eur J Med Chem, 2025)
Activity calls are given as the source filed them. The rule behind the calls is not given here.

Columns and labels:
[1] = molecular target: T1, Protein cereblon/Tyrosine-protein kinase BTK (Homo sapiens, UniProt Q06187+Q96SW2); assay: PROTAC activity at CRBN/BTK in human JeKo-1 cells assessed as BTK degradation up to 100 nM incubated for 24 hrs by Western blot analysis; format: cell-based
Target sequence in this assay (Q06187 2-659 limits assumed): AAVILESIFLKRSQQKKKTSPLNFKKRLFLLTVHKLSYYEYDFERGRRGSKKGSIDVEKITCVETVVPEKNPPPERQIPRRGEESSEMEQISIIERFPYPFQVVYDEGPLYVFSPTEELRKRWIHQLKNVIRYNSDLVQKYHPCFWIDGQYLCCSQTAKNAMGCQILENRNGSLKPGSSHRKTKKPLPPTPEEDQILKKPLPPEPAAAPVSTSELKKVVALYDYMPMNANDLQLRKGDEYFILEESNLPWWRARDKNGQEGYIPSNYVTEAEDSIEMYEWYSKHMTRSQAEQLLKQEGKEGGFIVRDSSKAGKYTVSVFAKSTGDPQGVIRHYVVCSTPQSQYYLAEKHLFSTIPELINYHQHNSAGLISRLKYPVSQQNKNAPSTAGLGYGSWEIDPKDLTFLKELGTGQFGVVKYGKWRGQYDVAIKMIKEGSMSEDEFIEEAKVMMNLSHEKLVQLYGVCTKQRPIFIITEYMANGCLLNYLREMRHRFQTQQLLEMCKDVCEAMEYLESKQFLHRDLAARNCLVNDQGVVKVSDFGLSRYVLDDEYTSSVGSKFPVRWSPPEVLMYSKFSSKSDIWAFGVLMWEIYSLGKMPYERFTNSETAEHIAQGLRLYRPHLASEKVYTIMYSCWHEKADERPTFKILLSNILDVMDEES
Target sequence in this assay (Q96SW2 whole entry partner): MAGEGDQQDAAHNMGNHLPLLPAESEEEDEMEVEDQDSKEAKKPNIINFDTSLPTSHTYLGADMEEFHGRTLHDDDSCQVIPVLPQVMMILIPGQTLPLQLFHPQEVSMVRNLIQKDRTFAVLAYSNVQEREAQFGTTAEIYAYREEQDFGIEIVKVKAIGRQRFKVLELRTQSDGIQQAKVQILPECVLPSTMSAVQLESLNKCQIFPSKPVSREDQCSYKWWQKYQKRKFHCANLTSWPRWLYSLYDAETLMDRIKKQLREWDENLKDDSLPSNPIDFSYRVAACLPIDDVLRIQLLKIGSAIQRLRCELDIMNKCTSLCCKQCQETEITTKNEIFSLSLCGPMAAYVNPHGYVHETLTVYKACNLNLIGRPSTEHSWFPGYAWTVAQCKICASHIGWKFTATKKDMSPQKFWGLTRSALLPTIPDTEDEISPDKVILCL

[2] = molecular target: T1, Protein cereblon/Tyrosine-protein kinase BTK; assay: PROTAC activity at CRBN/BTK in human JeKo-1 cells assessed as BTK degradation at 100 nM incubated for 24 hrs by Western blot analysis relative to control; format: cell-based
Target sequence in this assay (Q06187 2-659 limits assumed): as the sequence (Q06187 2-659 limits assumed) above
Target sequence in this assay (Q96SW2 whole entry partner): as the sequence (Q96SW2 whole entry partner) above

[3] = molecular target: T1, Protein cereblon/Tyrosine-protein kinase BTK; assay: PROTAC activity at CRBN/BTK in human JeKo-1 cells assessed as BTK degradation at 10 nM incubated for 24 hrs by Western blot analysis relative to control; format: cell-based
Target sequence in this assay (Q06187 2-659 limits assumed): as the sequence (Q06187 2-659 limits assumed) above
Target sequence in this assay (Q96SW2 whole entry partner): as the sequence (Q96SW2 whole entry partner) above

[4] = molecular target: T1, Protein cereblon/Tyrosine-protein kinase BTK; assay: PROTAC activity at CRBN/BTK in human JeKo-1 cells assessed as BTK degradation at 30 nM incubated for 24 hrs by Western blot analysis relative to control; format: cell-based
Target sequence in this assay (Q06187 2-659 limits assumed): as the sequence (Q06187 2-659 limits assumed) above
Target sequence in this assay (Q96SW2 whole entry partner): as the sequence (Q96SW2 whole entry partner) above

[5] = Cytotoxicity against human TMD8 cells harboring BTK C481S mutant assessed as inhibition of cell viability incubated for 5 days by CCK8 assay; format: functional, cell-based; settings: TMD8, 120 h
[6] = Cytotoxicity against human TMD8 cells harboring wild-type BTK assessed as inhibition of cell viability incubated for 5 days by CCK8 assay; format: functional, cell-based; settings: TMD8, 120 h
[7] = molecular target: T1, Protein cereblon/Tyrosine-protein kinase BTK; assay: PROTAC activity at CRBN/BTK in human JeKo-1 cells assessed as BTK degradation incubated for 24 hrs by Western blot analysis; format: cell-based
Target sequence in this assay (Q06187 whole entry): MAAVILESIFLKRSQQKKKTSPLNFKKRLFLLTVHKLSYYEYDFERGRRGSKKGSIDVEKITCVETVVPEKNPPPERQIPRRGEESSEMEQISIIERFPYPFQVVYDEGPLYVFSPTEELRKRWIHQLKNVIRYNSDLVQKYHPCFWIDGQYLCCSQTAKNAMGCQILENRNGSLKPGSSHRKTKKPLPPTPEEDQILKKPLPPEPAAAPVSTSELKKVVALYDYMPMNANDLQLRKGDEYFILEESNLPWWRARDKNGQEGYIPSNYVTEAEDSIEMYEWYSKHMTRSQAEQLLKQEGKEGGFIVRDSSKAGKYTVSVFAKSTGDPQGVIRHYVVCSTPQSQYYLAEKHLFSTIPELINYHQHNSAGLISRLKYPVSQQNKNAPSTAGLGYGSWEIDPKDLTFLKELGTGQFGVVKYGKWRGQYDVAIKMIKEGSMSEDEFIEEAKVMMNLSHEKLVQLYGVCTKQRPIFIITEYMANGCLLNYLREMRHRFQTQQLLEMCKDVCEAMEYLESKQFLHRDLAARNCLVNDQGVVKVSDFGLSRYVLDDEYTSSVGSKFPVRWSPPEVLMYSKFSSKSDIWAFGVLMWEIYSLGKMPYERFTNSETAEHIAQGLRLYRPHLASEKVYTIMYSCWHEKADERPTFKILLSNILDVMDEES
Target sequence in this assay (Q96SW2 whole entry): as the sequence (Q96SW2 whole entry partner) above

[8] = Microsomal stability in human liver microsomes assessed as compound remaining measured up to 60 mins in presence of NADPH by LC-MS/MS analysis; format: ADME, Microsome; settings: read-out: Stability
[9] = Microsomal stability in human liver microsomes assessed as intrinsic clearance in liver measured up to 60 mins in presence of NADPH by LC-MS/MS analysis; format: ADME, Microsome; settings: read-out: CLH
[10] = Microsomal stability in human liver microsomes assessed as half life measured up to 60 mins in presence of NADPH by LC-MS/MS analysis; format: ADME, Microsome
[11] = Microsomal stability in human liver microsomes assessed as compound remaining measured up to 60 mins by LC-MS/MS analysis; format: ADME, Microsome; settings: read-out: Stability
[12] = Microsomal stability in human liver microsomes assessed as intrinsic clearance in microsomes measured up to 60 mins in presence of NADPH by LC-MS/MS analysis; format: ADME, Microsome; settings: read-out: CLH

Compound	Activity [2]	Activity [3]	Activity [4]	other results
CN1C(=O)CCC(c2ccc(N3CCC(CCN4CCC(CC(=O)N[C@H]5CC[C@H](Nc6ncnc7[nH]cc(C(=O)c8ccc(Oc9ccccc9)cc8)c67)C5)CC4)CC3)cc2)C1=O (stereo partly drawn)				Activity [1]: inactive
O=C1CCC(N2Cc3cc(N4CCC(CCN5CCC(CC(=O)N6CCC(Nc7ncnc8[nH]cc(C(=O)c9ccc(Oc%10ccccc%10)cc9Cl)c78)CC6)CC5)CC4)c(F)cc3C2=O)C(=O)N1 (stereo not drawn)	94%	80%	90%	
NC(=O)c1ncc(N2CCCCC2)nc1Nc1ccc(C2CCN(C[C@@H]3CCN(c4ccc5c(c4)C(=O)N(C4CCC(=O)NC4=O)C5=O)C3)CC2)cc1 (stereo partly drawn)				IC50 [5]: 18 nM; IC50 [6]: 8.8 nM
O=C1CCC(N2Cc3cc(N4CCC(CCN5CCC(CC(=O)N[C@H]6CC[C@H](Nc7ncnc8[nH]cc(C(=O)c9ccc(Oc%10ccccc%10)cc9Cl)c78)C6)CC5)CC4)c(F)cc3C2=O)C(=O)N1 (stereo partly drawn)	98%	88%	94%	
O=C1CCC(c2ccc(N3CCC(CN4CCC(CC(=O)N[C@H]5CC[C@@H](Nc6ncnc7[nH]cc(C(=O)c8ccc(Oc9ccccc9)cc8)c67)CC5)CC4)C3)cc2)C(=O)N1 (stereo partly drawn)	6%	4%	11%	
O=C1CCC(n2ncc(N3CCC(CCN4CCC(CC(=O)N[C@H]5CC[C@@H](Nc6ncnc7[nH]cc(C(=O)c8ccc(Oc9ccccc9)cc8Cl)c67)CC5)CC4)CC3)c(Cl)c2=O)C(=O)N1 (stereo partly drawn)	91%	64%	88%	
O=C1CCC(N2Cc3cc(N4CCC(CCN5CCC(CC(=O)N[C@@H]6CC[C@H](Nc7ncnc8[nH]cc(C(=O)c9ccc(Oc%10ccccc%10)cc9Cl)c78)C6)CC5)CC4)c(F)cc3C2=O)C(=O)N1 (stereo partly drawn)	88%	77%	91%	
O=C1CCC(c2ccc(N3CCC(CCN4CCC(CC(=O)N[C@H]5CC[C@@H](Nc6ncnc7[nH]cc(C(=O)c8ccc(Oc9ccccc9)cc8)c67)CC5)CC4)CC3)cc2)C(=O)N1 (stereo partly drawn)	69%	69%	79%	
O=C1CCC(c2ccc(N3CCC(CN4CCC(CC(=O)N[C@H]5CC[C@H](Nc6ncnc7[nH]cc(C(=O)c8ccc(Oc9ccccc9)cc8)c67)C5)CC4)CC3)nc2)C(=O)N1 (stereo partly drawn)	93%	84%	91%	DC50 [7]: 3.1 nM; remaining at 1 h [8]: 53.9%; CLint scaled [9]: 18.2 mL/min/kg; half-life [10]: 1.13 h; remaining at 1 h [11]: 94.6%; microsomal CLint [12]: 20.3 µL/min/mg
O=C(c1ccc(Oc2ccccc2)cc1Cl)c1c[nH]c2ncnc(N[C@@H]3CC[C@@H](CO)OC3)c12 [NEMTABRUTINIB]				IC50 [5]: 594 nM; IC50 [6]: 335 nM
O=C1CCC(N2Cc3cc(N4CCC(CCN5CCC(CC(=O)N[C@H]6CC[C@@H](Nc7ncnc8[nH]cc(C(=O)c9ccc(Oc%10ccccc%10)cc9Cl)c78)CC6)CC5)CC4)c(F)cc3C2=O)C(=O)N1 (stereo partly drawn)	89%	83%	92%	IC50 [5]: 27.4 nM; IC50 [6]: 23.9 nM
O=C1CCC(N2Cc3cc(N4CCC(CCN5CCC(CC(=O)NC6CCN(c7ncnc8[nH]cc(C(=O)c9ccc(Oc%10ccccc%10)cc9Cl)c78)CC6)CC5)CC4)c(F)cc3C2=O)C(=O)N1 (stereo not drawn)	88%	56%	76%	
Cc1ccc(C(=O)N2CCC(CCN3CCC(CC(=O)N[C@H]4CC[C@@H](Nc5ncnc6[nH]cc(C(=O)c7ccc(Oc8ccccc8)cc7Cl)c56)CC4)CC3)CC2)cc1N1CCC(=O)NC1=O	81%	26%	60%	
O=C1CCC(c2cccc(N3CCC(CCN4CCC(CC(=O)N[C@H]5CC[C@@H](Nc6ncnc7[nH]cc(C(=O)c8ccc(Oc9ccccc9)cc8Cl)c67)CC5)CC4)CC3)c2)C(=O)N1 (stereo partly drawn)	77%	45%	62%	
O=C1CCC(N2Cc3cc(N4CCC(CCN5CCC(CC(=O)N6CCN(c7ncnc8[nH]cc(C(=O)c9ccc(Oc%10ccccc%10)cc9Cl)c78)CC6)CC5)CC4)c(F)cc3C2=O)C(=O)N1 (stereo not drawn)	47%	65%	53%	
O=C1CCC(c2ccc(N3CCC(CCN4CCC(CC(=O)N[C@H]5CC[C@@H](Nc6ncnc7[nH]cc(C(=O)c8ccc(Oc9ccccc9)cc8Cl)c67)CC5)CC4)CC3)cc2)C(=O)N1 (stereo partly drawn)	89%	79%	85%	
CN1C(=O)CCC(c2ccc(N3CCC(CCN4CCC(CC(=O)N[C@H]5CC[C@H](Nc6ncnc7[nH]cc(C(=O)c8ccc(Oc9ccccc9)cc8)c67)C5)CC4)CC3)nc2)C1=O (stereo partly drawn)				Activity [1]: inactive
O=C1CCC(N2Cc3cc(N4CCC(CCN5CCC(CC(=O)N[C@H]6CC[C@@H](Nc7ncnc8[nH]cc(C(=O)c9ccc(F)cc9Cl)c78)CC6)CC5)CC4)c(F)cc3C2=O)C(=O)N1 (stereo partly drawn)	23%	11%	7%	
O=C1CCN(c2cccc(C(=O)N3CCC(CCN4CCC(CC(=O)N[C@H]5CC[C@@H](Nc6ncnc7[nH]cc(C(=O)c8ccc(Oc9ccccc9)cc8Cl)c67)CC5)CC4)CC3)c2)C(=O)N1	24%			
O=C1CCC(c2ccc(N3CCC(CCN4CCC(CCN[C@H]5CC[C@@H](Nc6ncnc7[nH]cc(C(=O)c8ccc(Oc9ccccc9)cc8)c67)CC5)CC4)CC3)cc2)C(=O)N1 (stereo partly drawn)	39%		15%	

Continued, in another order:

Activity [2]	Activity [3]	Activity [4]	Compound	other results
74%	50%	51%	O=C1CCC(c2ccc(N3CCC(CN4CCC(CC(=O)N[C@H]5CC[C@@H](Nc6ncnc7[nH]cc(C(=O)c8ccc(Oc9ccccc9)cc8)c67)CC5)CC4)CC3)cc2)C(=O)N1 (stereo partly drawn)	
98%	80%	98%	O=C1CCC(N2Cc3cc(N4CCC(CCN5CCC(CC(=O)N[C@H]6CC[C@H](Nc7ncnc8[nH]cc(C(=O)c9ccc(Oc%10ccccc%10)cc9Cl)c78)CC6)CC5)CC4)c(F)cc3C2=O)C(=O)N1 (stereo partly drawn)	
73%	4%	54%	O=C1CCC(NC(=O)c2ccc(N3CCC(CCN4CCC(CC(=O)N[C@H]5CC[C@@H](Nc6ncnc7[nH]cc(C(=O)c8ccc(Oc9ccccc9)cc8Cl)c67)CC5)CC4)CC3)cn2)C(=O)N1 (stereo partly drawn)	
35%		9%	O=C1CCN(c2ccc(C(=O)N3CCC(CCN4CCC(CC(=O)N[C@H]5CC[C@@H](Nc6ncnc7[nH]cc(C(=O)c8ccc(Oc9ccccc9)cc8Cl)c67)CC5)CC4)CC3)cc2)C(=O)N1	
96%	87%	95%	O=C1CCC(N2Cc3cc(N4CCC(CCN5CCC(CC(=O)N[C@H]6CC[C@@H](Nc7ncnc8[nH]cc(C(=O)c9ccc(Oc%10ccccc%10)cc9)c78)CC6)CC5)CC4)c(F)cc3C2=O)C(=O)N1 (stereo partly drawn)	
88%	69%	85%	O=C1CCC(c2ccc(N3CCC(CN4CCC(CC(=O)N[C@H]5CC[C@H](Nc6ncnc7[nH]cc(C(=O)c8ccc(Oc9ccccc9)cc8)c67)C5)CC4)CC3)cc2)C(=O)N1 (stereo partly drawn)	DC50 [7]: 3.6 nM; remaining at 1 h [8]: 55.6%; CLint scaled [9]: 14.2 mL/min/kg; half-life [10]: 1.47 h; remaining at 1 h [11]: 96.8%; microsomal CLint [12]: 15.8 µL/min/mg
54%	41%	46%	O=C1CCC(N2Cc3cc(N4CCC(CCN5CCC(CC(=O)N[C@@H]6CCC[C@H](Nc7ncnc8[nH]cc(C(=O)c9ccc(Oc%10ccccc%10)cc9Cl)c78)C6)CC5)CC4)c(F)cc3C2=O)C(=O)N1 (stereo partly drawn)	
53%	15%	36%	O=C1CCC(c2ccc(N3CCC(CCN4CCN(CC(=O)N[C@H]5CC[C@@H](Nc6ncnc7[nH]cc(C(=O)c8ccc(Oc9ccccc9)cc8)c67)CC5)CC4)CC3)cc2)C(=O)N1 (stereo partly drawn)	
23%		4%	O=C1CCC(c2ccc(N3CC4(CCN(CC(=O)N[C@H]5CC[C@@H](Nc6ncnc7[nH]cc(C(=O)c8ccc(Oc9ccccc9)cc8)c67)CC5)CC4)C3)cc2)C(=O)N1 (stereo partly drawn)	
36%	18%	32%	O=C1CCC(N2Cc3cc(N4CCC(CCN5CCC(CC(=O)N[C@H]6CC[C@@H](Nc7ncnc8[nH]cc(C(=O)c9ccccc9Cl)c78)CC6)CC5)CC4)c(F)cc3C2=O)C(=O)N1 (stereo partly drawn)	
